{
  "source": "paper PMC4434572",
  "about": "“Identification of novel drugs to target dormant micrometastases” (BMC Cancer, 2015)",
  "key": {"J82 (bladder)": {"system": "J82 (bladder)", "experiment": "Proliferation EC50 on SISgel vs monolayer", "type": "cell-based", "settings": "n = 6-8", "from_the_text": "(§1) The libraries were obtained from the NCI (Diversity Library I) comprised of 2,918 compounds and a 10,000 compound diversity library from ChemBridge, Inc. (DiverSet-EXP). The NCI library is no longer available in the form used here, but how it was constructed is described (http://dtp.nci.nih.gov/branches/dscb/diversity_explanation.html). The ChemBridge library is a subset (Set Code NM1024) of the full 50,000 compound library (http://www.chembridge.com/screening_libraries/diversity_libraries/). Compounds were diluted to 100 μM before use. SISgel was prepared as described previously from powdered porcine small intestine submucosa obtained from Cook Biotech (W. Lafayette, IN). It is a natural product that is used extensively in tissue engineering as a bioscaffold. J82 bladder cancer cells and other cell lines were obtained from the ATCC (Bethesda, MD). The basic principle is that cells grown on any ECM are, in general, expected to show higher resistance to anticancer compounds than when grown on plastic. Therefore, compounds that show a higher activity toward cancer cells on a normal ECM than on a plastic surface would be candidates to target suppressed, micrometastatic cells. Efficacy in vitro was assessed by plating 30,000 cells in 50 μL of high glucose DMEM with penicillin-streptomycin and 10 % fetal calf serum on SISgel in a 96-well plate containing 50 μL of gelled SISgel per well. Cells were allowed to attach and assume the SISgel phenotype for 48 h. A matching plate without SISgel was prepared 24 h later by pipetting 3,000 cells in 100 μL of high glucose DMEM with penicillin-streptomycin and 10 % fetal calf serum into each well of 96 well plate. The cells were allowed to attach and grow for 24 h. These numbers of cells gave approximately equal replication rates at the time drug was added for cells grown on the plastic surface or SISgel as determined by the fraction of S-phase cells identified by flow cytometry. The cells were exposed to drug in fresh medium for 48 h, at which time the cell number was determined using the CFDA-AM cellular esterase proliferation assay (cat. #C1354, Life Technologies). For screening the results are reported as the ratio of cell count of cells on the plastic surface to the cell count on SISgel. An initial difference of 1.5 fold identified potential hits. All potential hits were confirmed in triplicate. Those compounds that replicated were confirmed by a full dose–response study yielding an EC50 using five wells per drug concentration. Data were analyzed using nonlinear regression to a sigmoid curve with Prism 4 (GraphPad Software, Inc., LaJolla, CA). Potential hits that were confirmed by dose–response using J82 were also tested with MDA-MB-435 breast cancer, PC-3 metastatic prostate cancer, Capan1 pancreatic cancer and the J82 bladder cancer cell lines."}, "in vivo": {"experiment": "in vivo", "settings": "BALB/c, mouse, ip"}, "4T1 Luc2-GFP cells": {"system": "4T1 Luc2-GFP cells", "experiment": "Orthotopic 4T1 syngeneic model of triple-negative breast cancer with natural lung metastasis", "type": "in vivo, BALB/c mice", "description": "4T1 Luc2-GFP cells (PerkinElmer, Waltham, MA) were cultured in DMEM high glucose media with 2 mM pyruvate, 2 mM glutamine, 2 % Pen/Strep and 10 % Cosmic Calf Serum (Mediatech, Manassas, VA). To prepare cells for injection they were removed from flasks, counted using the TC10 counting system (BioRad, Hercules, CA) and checked for viability. Cells were then washed with PBS, pelleted and taken up at a concentration of 75,000 cells/ml; 100 μl of cell suspension (7,500 cells) was injected subcutaneously (bevel side up) into mammary fat pad #4 of 8 weeks old female BALB/c mice (NCI National Laboratory Frederick/Charles River animal production program). All animals were weighed and tumors were measured using calipers three times weekly. Beginning one week after implantation, which is when micrometastatic cells begin to arrive in the lungs, animals were treated three times per week with intraperitoneal DT310 or DT320 at their NOAEL dose of 75 mg/kg three times week dissolved in saline or by osmotic pump. The osmotic pumps (Alzet #2004) delivered an NOAEL dose of 23.4 and 26.7 μg/h of DT310 and DT320, respectively, for 4 weeks and were implanted as directed subcutaneously posterior to scapulae. Docetaxel was delivered once weekly intraperitoneally at its MTD of 15 mg/kg and doxorubicin delivered once weekly at its MTD of 1 mg/kg in 5 % N-Methyl-2-pyrrolidone, 5 % Solutol HS, and 90 % saline. GFP positive cells were imaged with excitation of GFP emission using a Leica Model Z16 APO fluorescence microscope equipped for a wide field, a large depth of field and 0.57–9.2X zoom capability. GFP-positive objects were counted and scored as to whether they were […], clumps of less than ten cells without a visible vasculature, as determined by co-injection of tetramethylrhodamine labeled dextran (2 million MW)."}, "MDA-MB-435 cells": {"system": "MDA-MB-435 cells", "experiment": "Western blot of protein levels after treatment", "type": "cell-based", "description": "Protein content of selected proteins identified by reversed phase protein array (see supplementary materials) as being involved mechanistically in the response to DT320 was assayed by Western blot as described using the following antibodies. The following antibodies were purchased from Cell Signaling Technology (Beverly, MA) and diluted per manufacturer’s directions: Rabbit mAb Anti-Phospho-AKT (Ser473) (D9E) XP® #4060, Rabbit mAb anti-p38 MAPK (D13E1) XP® #8690, Mouse mAb anti-Phospho-SAPK/JNK (Thr183/Tyr185) (G9) #9255, Rabbit mAb anti-Phospho-CHK1 (Ser345) (133D3) #2348, Rabbit polyclonal anti-Phospho-CHK2 (Thr68) Antibody #2661, Rabbit polyclonal anti-BAX Antibody #2772, Rabbit polyclonal anti-Vinculin Antibody #4650, Mouse mAb anti-Cyclin D1 (DCS6) #2926, Rabbit mAb anti-Cyclin E2 (D52F9) b #3741, […], Mouse mAb anti-Cyclin B1 (V152) #4135, Rabbit mAb anti-cleaved PARP (Asp214) (D64E10) XP® #5625, Rabbit mAb anti-cleaved Caspase-3 (Asp175) (5A1E) #9654, Rabbit mAb anti-Nanog (D73G4), #4903; Rabbit mAb anti-Oct4 (C52G3) #2890; and Rabbit mAb anti-Sox2 (D6D9) #3579. Specificity of each antibody is illustrated on the company’s web page. For negative controls, pre-immune rabbit IgG was used. No signal was detected in the control IgG samples. No intensities or contrast were modified, but the appropriate bands were cut out using PhotoShop to prepare composite gel images.\nTo elucidate the mechanism of DT310 and DT320, cell cycle analysis and Western blotting was performed. The proteins for Western blot were selected from preliminary results using reverse phase protein array (RPPA) for DT320 and DT321 treated MDA-MB-435 and T24 cells. […] Proteins within these clusters showing the largest differences in protein expression and that were related to known anticancer drug action were confirmed by Western blot. Docetaxel was used as a positive control because it is known to induce a cell cycle arrest and apoptosis signature."}, "[1]": {"system": "protein tyrosine phosphatase (PTP)", "parameters": "method as in PMID 9575179", "settings": "cited from earlier work"}, "[2]": {"system": "cancer cells on SISgel or plastic", "experiment": "Activity of leads and analogs on cancer cells grown on plastic vs SISgel (cell line not stated)", "type": "cell-based", "description": "The NCI library is no longer available in the form used here, but how it was constructed is described (http://dtp.nci.nih.gov/branches/dscb/diversity_explanation.html). The ChemBridge library is a subset (Set Code NM1024) of the full 50,000 compound library (http://www.chembridge.com/screening_libraries/diversity_libraries/). Compounds were diluted to 100 μM before use. SISgel was prepared as described previously from powdered porcine small intestine submucosa obtained from Cook Biotech (W. Lafayette, IN). It is a natural product that is used extensively in tissue engineering as a bioscaffold. J82 bladder cancer cells and other cell lines were obtained from the ATCC (Bethesda, MD). […] Efficacy in vitro was assessed by plating 30,000 cells in 50 μL of high glucose DMEM with penicillin-streptomycin and 10 % fetal calf serum on SISgel in a 96-well plate containing 50 μL of gelled SISgel per well. Cells were allowed to attach and assume the SISgel phenotype for 48 h. A matching plate without SISgel was prepared 24 h later by pipetting 3,000 cells in 100 μL of high glucose DMEM with penicillin-streptomycin and 10 % fetal calf serum into each well of 96 well plate. The cells were allowed to attach and grow for 24 h. […] The cells were exposed to drug in fresh medium for 48 h, at which time the cell number was determined using the CFDA-AM cellular esterase proliferation assay (cat. #C1354, Life Technologies). For screening the results are reported as the ratio of cell count of cells on the plastic surface to the cell count on SISgel. An initial difference of 1.5 fold identified potential hits. All potential hits were confirmed in triplicate. […] Data were analyzed using nonlinear regression to a sigmoid curve with Prism 4 (GraphPad Software, Inc., LaJolla, CA). […]"}, "Capan-1 (pancreatic)": {"system": "Capan-1 (pancreatic)", "experiment": "Proliferation EC50 on SISgel vs monolayer", "type": "cell-based", "settings": "Homo sapiens, n = 6-8", "from_the_text": "as §1"}, "MDA-MB-435-GFP cells": {"system": "MDA-MB-435-GFP cells", "experiment": "Flank xenograft model of ECM-suppressed cells co-injected with SISgel", "type": "in vivo, nu/nu mice", "settings": "75 mg/kg twice weekly; 6 flanks", "description": "The efficacy of DT320 was assessed using a flank xenograft model of ECM-suppressed cancer cells that we developed, as well as an orthotopic model of “triple-negative” breast cancer. All animal protocols were reviewed and approved by the OUHSC Institutional Animal Care and Use Committee according to criteria established by the NIH Office of Laboratory Animal Welfare, and animals were housed 5 per cage with enrichment (tubes) and wood chips in the AALAC-accredited OUHSC Animal Facility with a 12 h light/dark cycle. Animals had access to water and food ad libatum. Animals were monitored daily by trained facility personnel. In the flank model, GFP-labeled cells were co-injected with SISgel, which produces a suppressed, normalized phenotype that persists after the SISgel is resorbed, but which can re-emerge into active tumor growth after 30–60 days. Animals were all female nu/nu mice (NCI National Laboratory Frederick/Charles River animal production program). An optimized number of 5 × 10^5 GFP-labeled MDA-MB-435 cells in 100 μL DMEM medium, without additives, were mixed with 100 μL of SISgel and were kept on ice until injection to prevent polymerization of the SISgel. […] The cells injected into the flanks remained as a non-growing spot, as assessed by fluorometry of the spots and the lack of mitoses seen in tissue sections, for about 3–5 weeks before some began resuming malignant growth. […]"}},
  "note": "Entries after “also recorded” stand apart in the source; their conditions may differ. Read-outs that look alike come from different tables or passages of the source.",
  "data": [
    {"compound": "N.N.[Cl][Pt][Cl]", "note": "[cisplatin, reference compound]", "values": [
      {"measurement": "EC50", "setting": "J82 (bladder); J82 monolayer, read-out: EC50 Monolayer", "value": "102 ± 10.2", "unit": "µM"},
      {"measurement": "EC50", "setting": "J82 (bladder); J82 on SISgel, read-out: EC50 SISgel", "value": "> 300", "unit": "µM"}
    ]},
    {"compound": "CC(=O)O[C@@]12CO[C@@H]1C[C@H](O)[C@@]1(C)C(=O)[C@H](O)C3=C(C)[C@@H](OC(=O)[C@H](O)[C@@H](NC(=O)OC(C)(C)C)c4ccccc4)C[C@@](O)([C@@H](OC(=O)c4ccccc4)[C@H]21)C3(C)C", "note": "[docetaxel]", "values": [
      {"measurement": "MTD", "setting": "in vivo", "value": 15, "unit": "mg/kg"},
      {"measurement": "primary tumor growth", "setting": "4T1 Luc2-GFP cells; administered i.p. at MTD", "value": "little effect"},
      {"measurement": "number of large multicellular micrometastases and vascularized macrometastases to the lung", "setting": "4T1 Luc2-GFP cells; i.p. or osmotic pump", "value": "only minimal effects"},
      {"measurement": "CHK1 expression", "setting": "MDA-MB-435 cells", "value": "neither of the DT compounds nor docetaxel induced CHK1"},
      {"measurement": "Cyclin A1 (CCNA1) expression", "setting": "MDA-MB-435 cells", "value": "sharply down-regulate"},
      {"measurement": "Cyclin D1 (CCND1) expression", "setting": "MDA-MB-435 cells", "value": "down-regulated"},
      {"measurement": "cyclin B1 (CCNB1) expression", "setting": "MDA-MB-435 cells", "value": "down-regulated"},
      {"measurement": "pSAP/JNK expression", "setting": "MDA-MB-435 cells", "value": "not"},
      {"measurement": "pAKT expression", "setting": "MDA-MB-435 cells; 24 h", "value": "did not"}
    ]},
    {"compound": "Cc1ccc(C(=O)Nc2ccc(S(=O)(=O)O)c3cc(S(=O)(=O)O)cc(S(=O)(=O)O)c23)cc1NC(=O)c1cccc(NC(=O)Nc2cccc(C(=O)Nc3cc(C(=O)Nc4ccc(S(=O)(=O)O)c5cc(S(=O)(=O)O)cc(S(=O)(=O)O)c45)ccc3C)c2)c1", "note": "[Suramin, reference compound]", "values": [
      {"measurement": "PTP inhibition", "setting": "[1]", "value": "potent"},
      {"measurement": "SR", "setting": "[2]; ratio IC50-p/IC50-S", "value": 1.4},
      {"measurement": "IC50", "setting": "[2]; read-out: IC50-S", "value": 226, "unit": "µM"},
      {"measurement": "IC50", "setting": "[2]; read-out: IC50-p", "value": 321, "unit": "µM"}
    ]},
    {"compound": "Nc1ccn([C@@H]2O[C@H](CO)[C@@H](O)C2(F)F)c(=O)n1", "note": "[gemcitabine, reference compound]", "values": [
      {"measurement": "EC50", "setting": "Capan-1 (pancreatic); Capan-1 monolayer, read-out: EC50 Monolayer", "value": "78.2 ± 9.8", "unit": "µM"},
      {"measurement": "EC50", "setting": "Capan-1 (pancreatic); Capan-1 on SISgel, read-out: EC50 SISgel", "value": "83.1 ± 10.7", "unit": "µM"},
      {"measurement": "response of suppressed flank xenografts", "setting": "MDA-MB-435-GFP cells", "value": "no response in all six flank xenografts; also recorded: remained present"}
    ]}
  ]
}
